The text below walks through data of ChEMBL document CHEMBL1133120, “Synthesis and evaluation of isothiocyanate-containing derivatives of the delta-opioid receptor antagonist Tyr-Tic-Phe-Phe (TIPP) as potential affinity labels for delta-opioid receptors” (J Med Chem, 2000).

Structures are written as SMILES. Where a SMILES comes first, the peptide text is derived from it. [ ]: non-standard residue; d: D form. Phe(4-NH2) = Nc1ccc(C[C@H](N)C(=O)O)cc1; Tic = O=C(O)[C@@H]1Cc2ccccc2CN1 Some results are limits rather than exact numbers.

One assay has as its target Mu-type opioid receptor (Rattus norvegicus, UniProt P33535). Kind of assay: Binding assay evaluated using DAMGO radioligand in CHO cells transfected with rat Opioid receptor mu 1. Format: cell-based.
Assay [1] has as its target Delta-type opioid receptor (Mus musculus, UniProt P32300). Kind of assay: Binding assay evaluated using […] radioligand in CHO cells transfected with mouse Opioid receptor delta 1. It counts as cell-based.

Delta-type opioid receptor, sequence (P32300 whole entry): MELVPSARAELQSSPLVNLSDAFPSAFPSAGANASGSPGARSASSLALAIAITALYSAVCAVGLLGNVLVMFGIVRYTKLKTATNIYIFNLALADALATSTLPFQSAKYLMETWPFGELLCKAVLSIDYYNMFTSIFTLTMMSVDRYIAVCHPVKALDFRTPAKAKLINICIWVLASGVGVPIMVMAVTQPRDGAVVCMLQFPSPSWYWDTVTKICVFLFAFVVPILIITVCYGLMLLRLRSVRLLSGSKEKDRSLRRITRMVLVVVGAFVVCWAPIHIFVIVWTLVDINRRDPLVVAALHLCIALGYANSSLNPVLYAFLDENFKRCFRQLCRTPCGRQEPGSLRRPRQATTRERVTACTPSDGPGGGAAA
Mu-type opioid receptor, sequence (P33535 whole entry): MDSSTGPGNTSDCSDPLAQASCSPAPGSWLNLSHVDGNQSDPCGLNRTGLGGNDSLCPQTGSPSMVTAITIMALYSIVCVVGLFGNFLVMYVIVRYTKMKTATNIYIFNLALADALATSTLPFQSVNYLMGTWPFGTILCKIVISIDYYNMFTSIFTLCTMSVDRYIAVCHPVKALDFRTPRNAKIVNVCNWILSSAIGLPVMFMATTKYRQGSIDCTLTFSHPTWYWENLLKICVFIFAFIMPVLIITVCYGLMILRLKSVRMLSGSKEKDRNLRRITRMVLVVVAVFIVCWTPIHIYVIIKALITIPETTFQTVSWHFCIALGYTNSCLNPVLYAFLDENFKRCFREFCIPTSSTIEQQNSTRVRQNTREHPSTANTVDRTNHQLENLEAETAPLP

In the case of `N[C@@H](Cc1ccc(O)cc1)C(=O)N1Cc2ccccc2C[C@H]1C(=O)N[C@@H](Cc1ccc(N=C=S)cc1)C(=O)N[C@@H](Cc1ccccc1)C(=O)O`, the IC50 was more than 10000 nM on Mu-type opioid receptor and 12.4 nM in assay [1].
For `N[C@@H](Cc1ccc(O)cc1)C(=O)N1Cc2ccccc2C[C@H]1C(=O)N[C@@H](Cc1ccccc1)C(=O)N[C@@H](Cc1ccc(N=C=S)cc1)C(=O)O`, in that order: more than 10000 nM and 5.4 nM.
Taken in the same sequence, the figures for `N[C@@H](Cc1ccc(O)cc1)C(=O)N1Cc2ccccc2C[C@H]1C(=O)N[C@@H](Cc1ccccc1)C(=O)N[C@@H](Cc1ccccc1)C(=O)O` (H-Y[Tic]FF-OH) were 22700 nM and 5.8 nM.
Take `Nc1ccc(C[C@H](NC(=O)[C@H](Cc2ccccc2)NC(=O)[C@@H]2Cc3ccccc3CN2C(=O)[C@@H](N)Cc2ccc(O)cc2)C(=O)O)cc1` (H-Y[Tic]F[Phe(4-NH2)]-OH): the half-inhibitory concentration (IC50) at Mu-type opioid receptor was more than 10000 nM; in assay [1] it was 11.8 nM.
Taken in the same sequence, the figures for `Nc1ccc(C[C@H](NC(=O)[C@@H]2Cc3ccccc3CN2C(=O)[C@@H](N)Cc2ccc(O)cc2)C(=O)N[C@@H](Cc2ccccc2)C(=O)O)cc1` (H-Y[Tic][Phe(4-NH2)]F-OH) were more than 10000 nM and 87.7 nM.
